The values that follow come from patent publication US10562909B2, “Fused quadracyclic compounds, compositions and uses thereof” (Tabomedex Biosciences, LLC, priority 2016, dated 2020).

Molecules are shown by their SMILES.

Sequence of MAPKAPK2 (P49137 whole entry, species assumed): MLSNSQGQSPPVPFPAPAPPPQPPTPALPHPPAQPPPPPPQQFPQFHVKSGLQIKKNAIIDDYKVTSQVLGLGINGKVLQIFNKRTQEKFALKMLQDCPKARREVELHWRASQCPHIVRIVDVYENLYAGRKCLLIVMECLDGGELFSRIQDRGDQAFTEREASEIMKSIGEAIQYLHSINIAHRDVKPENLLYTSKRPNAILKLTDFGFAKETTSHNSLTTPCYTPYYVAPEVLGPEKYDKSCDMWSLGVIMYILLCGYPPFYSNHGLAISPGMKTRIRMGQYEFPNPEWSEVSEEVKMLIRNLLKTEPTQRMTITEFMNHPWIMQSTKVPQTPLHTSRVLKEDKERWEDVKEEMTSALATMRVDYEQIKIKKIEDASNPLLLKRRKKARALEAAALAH

For this assay, the target named is MAPKAPK2 (Homo sapiens, UniProt P49137). Kind of assay: MK2 Enzymatic Assay. The format is biochemical. The note with it: 0.5 nM MAPKAPK2, 3 μM ATP, 2 μM Ser/Thr4 peptide, 23° C., values given as concentration bins. The method in brief:
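Percent phosphorylation was derived from coumarin and fluorescein emissions relative to 0% and 100% phospho-peptide controls, read after a 120 min development step. Reactions used 2× stocks of 1 nM kinase, 4 μM peptide and 6 μM ATP; enzyme and peptide sat 20 min before a 120 min ATP reaction.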
The IC50 is the concentration needed to halve the response being measured. Regarding `N#Cc1ccc(-c2cc3n(c2)Cc2cc(N4CCC5(CNC5)C4)ccc2-n2ncnc2-3)cc1` [Compound 256, 4-(7-(2,6-diazaspiro[3.4]octan-6-yl)-9H-benzo[e]pyrrolo[1,2-a][1,2,4]triazolo[5,1-c][1,4]diazepin-12-yl)benzonitrile], the IC50 was under 50 nM.
For the compound `Cc1nnc2n1-c1ccc(N3CC[C@H](CN(C)C)C3)cc1Cn1cc(-c3ccc(C#N)cc3)cc1-2` [Compound 229, 4-(7-((R)-3-((dimethylamino)methyl)pyrrolidin-1-yl)-3-methyl-9H-benzo[e]pyrrolo[1,2-a] [1,2,4]triazolo[3,4-c][1,4]diazepin-12-yl)benzonitrile], the IC50 lay within 50 to 100 nM.
On to `CN1CC2(CCN(c3ccc4c(n3)Cn3cc(-c5ccc(C#N)cc5)cc3-c3nccn3-4)C2)C1` [Compound 297, 4-(7-(2-methyl-2,6-diazaspiro[3.4]octan-6-yl)-9H-imidazo[2,1-c]pyrido[3,2-e]pyrrolo[1,2-a] [1,4]diazepin-12-yl)benzonitrile], for which the IC50 lay within 50 to 100 nM.
Compound `CN(C)C[C@@H]1CCN(c2ccc3c(c2)Cn2cc(-c4ccc(F)cc4)cc2-c2nccn2-3)C1` [Compound 345, (S)-1-(1-(12-(4-fluorophenyl)-9H-benzo[e]imidazo[2,1-c]pyrrolo[1,2-a][1,4]diazepin-7-yl)pyrrolidin-3-yl)-N,N-dimethylmethanamine] returned an IC50 of under 50 nM.
With `N#Cc1ccc(-c2cc3n(c2Cl)Cc2cc(N4CC[C@H](CN)C4)ccc2-n2cnnc2-3)cc1` [Compound 171, (R)-4-(7-(3-(aminomethyl)pyrrolidin-1-yl)-11-chloro-9H-benzo[e]pyrrolo[1,2-a][1,2,4]tri-azolo[3,4-c][1,4]diazepin-12-yl)benzonitrile] the figure was 50 to 100 nM; with `N#Cc1ccc(-c2cc3n(c2)Cc2cc(N4CC[C@H]5NCC[C@@H]54)ncc2-n2cnnc2-3)cc1` (racemic) [Compound 314, 4-(7-(trans-hexahydropyrrolo[3,2-b]pyrrol-1(2H)-yl)-9H-pyrido[3,4-e]pyrrolo[1,2-a][1,2,4]triazolo[3,4-c][1,4]diazepin-12-yl)benzonitrile], under 50 nM; with `CN(C)[C@H]1CCN(c2ccc3c(c2)Cn2cc(-c4ccc(C#N)cc4)cc2-c2ncnn2-3)C1` [Compound 260, (S)-4-(7-(3-(dimethylamino)pyrrolidin-1-yl)-9H-benzo[e]pyrrolo[1,2-a][1,2,4]triazolo[5,1-c][1,4]diazepin-12-yl)benzonitrile], under 50 nM.
With `OC1CN(c2ccc3c(c2)Cn2cc(-c4ccc(F)cc4)cc2-c2nccn2-3)CC1CN1CCC1` (single isomer, unassigned) [Compound 468] the figure was under 50 nM; with `CN(C)C[C@@H]1CN(c2ccc3c(c2)Cn2cc(-c4ccc(C#N)cc4)cc2-c2nncn2-3)C[C@H]1O` [Compound 108, 4-(7-((3R,4S)-3-((dimethylamino)methyl)-4-hydroxypyrrolidin-1-yl)-9H-benzo[e]pyrrolo[1,2-a][1,2,4]triazolo[3,4-c][1,4]diazepin-12-yl)benzonitrile], under 50 nM.
`Fc1ccc(-c2cc3n(c2)Cc2cc(N4CCC5(CNC5)C4)ccc2-n2ccnc2-3)cc1` [Compound 376, 12-(4-fluorophenyl)-7-(2,6-diazaspiro[3.4]octan-6-yl)-9H-benzo[e]imidazo[2,1-c]pyrrolo[1,2-a][1,4]diazepine]: the IC50 is under 50 nM.
`CN(C)C[C@@H]1CN(c2ccc3c(n2)Cn2cc(-c4ccc(C#N)cc4)cc2-c2nccn2-3)C[C@@H]1O` [Compound 299, 4-(7-((3R,4R)-3-((dimethylamino)methyl)-4-hydroxypyrrolidin-1-yl)-9H-imidazo[2,1-c]pyrido[3,2-e]pyrrolo[1,2-a][1,4]diazepin-12-yl)benzonitrile] showed an IC50 of under 50 nM.
On to `OC1CCN(C[C@H]2CCN(c3ccc4c(c3)Cn3cc(-c5ccccc5)cc3-c3nncn3-4)C2)CC1` [Compound 459, (R)-1-((1-(12-phenyl-9H-benzo[e]pyrrolo[1,2-a][1,2,4]triazolo[3,4-c][1,4]diazepin-7-yl)pyrrolidin-3-yl)methyl)piperidin-4-ol], for which the IC50 was in the range of 100 to 200 nM.
Consider `CN(C)C[C@@H]1CN(c2ccc3c(c2)Cn2cc(-c4ccc(F)cc4)cc2-c2ncnn2-3)C[C@@H]1O` [Compound 416, (3R,4R)-4-((dimethylamino)methyl)-1-(12-(4-fluorophenyl)-9H-benzo[e]pyrrolo[1,2-a][1,2,4]triazolo[5,1-c][1,4]diazepin-7-yl)pyrrolidin-3-ol], for which the IC50 was under 50 nM.
With `O=C(O)C1CCN(CC2CCN(c3ccc4c(c3)Cn3cc(-c5ccc(F)cc5)cc3-c3nccn3-4)C2)CC1` (stereo not shown) [Compound 480, 1-((1-(12-(4-fluorophenyl)-9H-benzo[e]imidazo[2,1-c]pyrrolo[1,2-a][1,4]diazepin-7-yl)pyrrolidin-3-yl)methyl)piperidine-4-carboxylic acid] the figure was 50 to 100 nM; with `CC(C)[C@H](CO)NC[C@H]1CCN(c2ccc3c(c2)Cn2cc(-c4ccc(F)cc4)cc2-c2nccn2-3)C1` [Compound 358, (R)-2-((((R)-1-(12-(4-fluorophenyl)-9H-benzo[e]imidazo[2,1-c]pyrrolo[1,2-a][1,4]diazepin-7-yl)pyrrolidin-3-yl)methyl)amino)-3-methylbutan-1-ol], under 50 nM; with `CN(C)[C@@H]1CCN(c2ccc3c(c2)Cn2cc(-c4ccc(F)cc4)cc2-c2ncnn2-3)C1` [Compound 426, (R)-1-(12-(4-fluorophenyl)-9H-benzo[e]pyrrolo[1,2-a][1,2,4]triazolo[5,1-c][1,4]diazepin-7-yl)-N,N-dimethylpyrrolidin-3-amine], 50 to 100 nM.
Next, `CNCC1CN(c2cc3c(cn2)-n2cnnc2-c2cc(-c4ccc(F)cc4)cn2C3)C1` [Compound 330, 1-(1-(12-(4-fluorophenyl)-9H-benzo[e]pyrrolo[1,2-a][1,2,4]triazolo[3,4-c][1,4]diazepin-7-yl)azetidin-3-yl)-N-methylmethanamine]: 50 to 100 nM.
Regarding `C[C@@H]1CN(c2ccc3c(c2)Cn2cc(-c4ccc(C#N)cc4)cc2-c2nnnn2-3)C[C@H](C)N1` [Compound 242, 4-(7-(cis-3,5-dimethylpiperazin-1-yl)-9H-benzo[e]pyrrolo[1,2-a]tetrazolo[5,1-c][1,4]diazepin-12-yl)benzonitrile], the IC50 fell in the range of 50 to 100 nM.
With `CC(C)(CO)NC[C@@H]1CCN(c2ccc3c(c2)Cn2cc(-c4ccc(F)cc4)cc2-c2ncnn2-3)C1` [Compound 425, (S)-2-(((1-(12-(4-fluorophenyl)-9H-benzo[e]pyrrolo[1,2-a][1,2,4]triazolo[5,1-c][1,4]diazepin-7-yl)pyrrolidin-3-yl)methyl)amino)-2-methylpropan-1-ol] the figure was 50 to 100 nM.
`Fc1ccc(-c2cc3n(c2)Cc2cc(N4CC5(CCNC5)C4)ccc2-n2ccnc2-3)cc1` [Compound 378, 12-(4-fluorophenyl)-7-(2,6-diazaspiro[3.4]octan-2-yl)-9H-benzo[e]imidazo[2,1-c]pyrrolo[1,2-a][1,4]diazepine] had an IC50 of under 50 nM.
With `CN(C)[C@H]1CN(c2ccc3c(n2)Cn2cc(-c4ccc(C#N)cc4)cc2-c2nccn2-3)C[C@H]1O` [Compound 302, 4-(7-((3S,4R)-3-(dimethylamino)-4-hydroxypyrrolidin-1-yl)-9H-imidazo[2,1-c]pyrido[3,2-e]pyrrolo[1,2-a][1,4]diazepin-12-yl)benzonitrile] the figure was 50 to 100 nM; with `CN(C)[C@H]1CN(c2ccc3c(c2)Cn2cc(-c4ccc(C#N)cc4)cc2-c2nccn2-3)C[C@H]1O` [Compound 133, 4-(7-((3S,4R)-3-(dimethylamino)-4-hydroxypyrrolidin-1-yl)-9H-benzo[e]imidazo[2,1-c]pyrrolo[1,2-a][1,4]diazepin-12-yl)benzonitrile], under 50 nM.
Next, `CN(C)C[C@@H]1CN(c2ccc3c(c2)Cn2cc(-c4ccc(F)cc4)cc2-c2ncnn2-3)C[C@@H]1F` [Compound 500, 1-((3R,4R)-4-fluoro-1-(12-(4-fluorophenyl)-9H-benzo[e]pyrrolo[1,2-a][1,2,4]triazolo[5,1-c] [1,4]diazepin-7-yl)pyrrolidin-3-yl)-N,N-dimethylmethanamine]: 100 to 200 nM; `Fc1ccc(-c2cc3n(c2)Cc2cc(N4CCC5(CC4)CNC5)ccc2-n2nnnc2-3)cc1` [Compound 402, 12-(4-fluorophenyl)-7-(2,7-diazaspiro[3.5]nonan-7-yl)-9H-benzo[e]pyrrolo[1,2-a]tetrazolo[5,1-c][1,4]diazepine]: under 50 nM.
Next, `CN(C)C[C@@H]1CCN(c2ccc3c(c2)Cn2cc(-c4ccc(C#N)cc4)cc2-c2nnnn2-3)C1` [Compound 241, (S)-4-(7-(3-((dimethylamino)methyl)pyrrolidin-1-yl)-9H-benzo[e]pyrrolo[1,2-a]tetrazolo[5,1-c][1,4]diazepin-12-yl)benzonitrile]: under 50 nM; `CN(C)[C@@H]1CN(c2ccc3c(n2)Cn2cc(-c4ccc(F)cc4)cc2-c2nccn2-3)C[C@@H]1O` [Compound 433, (3S,4R)-4-(dimethylamino)-1-(12-(4-fluorophenyl)-9H-imidazo[2,1-c]pyrido[3,2-e]pyrrolo[1,2-a][1,4]diazepin-7-yl)pyrrolidin-3-ol]: 50 to 100 nM; `N#Cc1ccc(-c2cc3n(c2)Cc2cc(N4CC5(CCNCC5)C4)ccc2-n2nnnc2-3)cc1` [Compound 245, 4-(7-(2,7-diazaspiro[3.5]nonan-2-yl)-9H-benzo[e]pyrrolo[1,2-a]tetrazolo[5,1-c][1,4]diazepin-12-yl)benzonitrile]: 100 to 200 nM.
Regarding `CN(C)[C@@H]1CCN(c2ccc3c(c2)Cn2cc(-c4ccc(F)cc4)cc2-c2nnnn2-3)C1` [Compound 406, (R)-1-(12-(4-fluorophenyl)-9H-benzo[e]pyrrolo[1,2-a]tetrazolo[5,1-c][1,4]diazepin-7-yl)-N,N-dimethylpyrrolidin-3-amine], the IC50 is under 50 nM.
